Measurements: patent publication US10597367B2, “Metabotropic glutamate receptor negative allosteric modulators (NAMs) and uses thereof” (Sanford Burnham Prebys Medical Discovery Institute, priority 2014, dated 2020)

What was measured:
mGlu2 receptor = mGlu2 receptor (Rattus norvegicus (Rat), UniProt P31421); test: mGlu2 in vitro GIRK thallium flux assay; format: cell-based; details: read-out: mGlu2 EC50 (μM) (60 min); NAM; test compound incubated 60 min before EC80 glutamate; HEK-293 GIRK cells
mGlu2 receptor, sequence (P31421 19-872): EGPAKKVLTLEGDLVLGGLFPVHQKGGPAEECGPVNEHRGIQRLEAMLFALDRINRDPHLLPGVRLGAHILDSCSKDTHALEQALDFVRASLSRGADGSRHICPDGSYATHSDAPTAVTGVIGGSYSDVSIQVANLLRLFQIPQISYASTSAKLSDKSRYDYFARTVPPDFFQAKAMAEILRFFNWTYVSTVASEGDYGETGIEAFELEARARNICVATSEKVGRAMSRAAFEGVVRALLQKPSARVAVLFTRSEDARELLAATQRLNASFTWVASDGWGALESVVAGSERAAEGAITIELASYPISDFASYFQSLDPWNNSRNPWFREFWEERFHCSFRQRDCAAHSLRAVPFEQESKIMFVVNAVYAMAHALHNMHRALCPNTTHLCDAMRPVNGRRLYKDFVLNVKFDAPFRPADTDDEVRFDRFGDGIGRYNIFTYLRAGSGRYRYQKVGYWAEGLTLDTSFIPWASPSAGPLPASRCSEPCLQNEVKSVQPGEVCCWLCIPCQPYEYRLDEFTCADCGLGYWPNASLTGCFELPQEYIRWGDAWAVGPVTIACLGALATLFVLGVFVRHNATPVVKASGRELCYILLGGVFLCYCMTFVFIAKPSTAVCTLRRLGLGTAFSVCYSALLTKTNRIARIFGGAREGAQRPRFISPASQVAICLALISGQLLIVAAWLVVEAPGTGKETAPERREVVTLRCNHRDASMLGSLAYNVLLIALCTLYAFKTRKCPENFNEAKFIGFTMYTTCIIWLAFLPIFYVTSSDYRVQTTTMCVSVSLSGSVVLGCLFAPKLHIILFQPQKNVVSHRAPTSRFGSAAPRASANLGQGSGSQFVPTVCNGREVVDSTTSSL
Experimental: All cell culture reagents were purchased from Invitrogen Corp. (Carlsbad, Calif.) unless otherwise noted. Compound activity at the group II (mGlu2 and mGlu3) mGlus was assessed using thallium flux through GIRK channels. Briefly, cells were plated into 384-well, black-walled, clear-bottomed poly-D-lysine-coated plates at a density of 15,000 cells/20 μL/well in DMEM containing 10% dialyzed FBS, 20 mM HEPES, and 100 units/mL penicillin/streptomycin (assay media). Plated cells were incubated overnight at 37° C. in the presence of 5% CO2. […] Cells were incubated for 1 h at room temperature, and the dye exchanged to assay buffer using an ELX405, leaving 20 μL/well. Test compounds were diluted to 2 times their final desired concentration in assay buffer (0.3% DMSO final concentration). […] Cell plates and compound plates were loaded onto a kinetic imaging plate reader (FDSS 6000 or 7000; Hamamatsu Corporation, Bridgewater, N.J.). Appropriate baseline readings were taken (10 images at 1 Hz; excitation, 470±20 nm; emission, 540±30 nm) and test compounds were added in a 20 μL volume and incubated for either 2.5 min or 60 min as indicated before the addition of 10 μL of thallium buffer with or without agonist. After the addition of agonist, data were collected for approximately an additional 2.5 min. Data were analyzed using Excel (Microsoft Corp, Redmond, Wash.). The slope of the fluorescence increase beginning 5 s after thallium/agonist addition and ending 15 s after thallium/agonist addition was calculated, corrected to vehicle and maximal agonist control slope values, and plotted in using either XLfit (ID Business Solutions Ltd) or Prism software (GraphPad Software, San Diego, Calif.) to generate concentration-response curves. Potencies were calculated from fits using a four-point parameter logistic equation. For concentration-response curve experiments, compounds were serially diluted 1:3 into 10 point concentration response curves and were transferred to daughter plates using an Echo acoustic plate reformatter (Labcyte, Sunnyvale, Calif.). Test compounds were applied and followed by EC80 concentrations of glutamate.

[1] = Plasma stability in vitro assay; format: in vitro ADME; details: heparinized rat plasma, 100 μM, 37.5° C.
Experimental: A 20 μL aliquot of a 10 mM solution in DMSO of the test compound was added to 2.0 mL of heparinized rat plasma (Lampire, P1-150N) to obtain a 100 μM final solution. The mixture was incubated for 1 h at 37.5° C. Aliquots of 100 μL were taken at 15 min intervals and diluted with 100 μL of MeOH/ACN. After mixing, the sample was centrifuged at approximately 13000 rpm for 12 min. The supernatant was filtered and transferred into an autosampler vial and the amount of test compound was quantified using the Shimadzu LCMS-2010EV system. The change of the AUC of the parent compound in function of time was used as a measure of plasma stability.

[2] = Microsomal stability in vitro assay; format: in vitro ADME; details: pooled rat liver microsomes, 4 μM compound, NADPH
Experimental: Pooled rat liver microsomes (BD Biosciences, #452701) were preincubated with test compounds at 37.5° C. for 5 min in the absence of NADPH. The reaction was initiated by addition of NADPH and incubated under the same conditions. The final incubation concentrations were 4 μM test compound, 2 mM NADPH, and 1 mg/mL (total protein) liver microsomes in phosphate-buffered saline (PBS) at pH 7.4. One aliquot (100 μL) of the incubation mixture was withdrawn at 15 min time points and combined immediately with 100 μL of ACN/MeOH. After mixing, the sample was centrifuged at approximately 13000 rpm for 12 min. The supernatant was filtered and transferred into an autosampler vial and the amount of test compound was quantified using a Shimadzu LCMS 2010EV mass spectrometer. The change of the AUC (area under the curve) of the parent compound as a function of time was used as a measure of microsomal stability. Test compounds were run in duplicate with a positive control.

Male Wistar rats = test: Forced Swim Test (FST); format: in vivo; details: rat, FIG. 1
Experimental: Male Wistar rats (Charles River, Hollister, Calif.), weighing 175-225 g (Charles River, Portage, Ind.) used for the forced swim test study were housed in pairs with food and water available ad libitum, except during testing, in a temperature and humidity controlled vivarium (21° C.). Rats were maintained on a 12-hour reverse light-dark cycle with lights on at 6 pm. All experimental procedures occurred during the dark cycle, were approved by the Institutional Animal Care and Use Committee of the Scripps Research Institute, and were in accordance with the Association for the Assessment and Accreditation of Laboratory Animal Care (AAALAC) guidelines. […]
After the habituation swim and 24 hours prior to the test swim, rats were administered one of three doses of a mGlu2/3 NAM, with doses and pretreatment time based on maximal brain penetration as determined by PK studies for each compound. Blood and brain tissue were collected immediately after the FST and the PK properties of each compound were analyzed together with FST behavior. […] Twenty-four hours after their first exposure, the animals were again placed in the swim apparatus for 5 min, and behaviors were monitored from above by video camera for subsequent analysis. The rater of the behavioral patterns was blind with respect to the experimental conditions being scored. […]

Plasma Stability, Percent Remaining @ 1 hour [1]	Microsomal Stability, Percent Remaining @ 1 hour [2]	Structure (SMILES)	EC50 (mGlu2 receptor)	antidepressant activity in the Forced Swim Test (immobility, swimming) (Male Wistar rats)
–	–	Cc1cc2c(cc1C(F)(F)F)NC(=O)CC(c1cccc(Oc3cccc(C(F)(F)F)c3)c1)N2 (single isomer, unassigned) [Example 172B, 7-Methyl-8-(trifluoromethyl)-4-(3-(3-(trifluoromethyl)phenoxy)phenyl)-4,5-dihydro-1H-benzo[b][1,4]diazepin-2(3H)-one]	> 10 µM	–
–	–	Cc1cc2c(cc1C(F)(F)F)NC(=O)CC(c1cccc(Oc3cccc(Br)c3)c1)N2 (single isomer, unassigned) [Example 173B, 4-(3-(3-Bromophenoxy)phenyl)-7-methyl-8-(trifluoromethyl)-4,5-dihydro-1H-benzo[b][1,4]diazepin-2(3H)-one]	> 10 µM	–
93%	3%	O=C(O)c1cc(-c2cccc(-c3csc(-c4ccccc4)n3)c2)ccc1F [Example 1, 4-Fluoro-3′-(2-phenylthiazol-4-yl)biphenyl-3-carboxylic Acid]	–	–
98%	4%	O=C(O)c1cc(F)cc(-c2cccc(-c3csc(-c4ccccc4)n3)c2)c1 [Example 9, 5-Fluoro-3′-(2-phenylthiazol-4-yl)biphenyl-3-carboxylic Acid]	–	–
65%	2%	O=C(O)c1cc(-c2cccc(-c3nsc(-c4ccccc4)n3)c2)ccc1F [Example 38, 4-Fluoro-3′-(5-phenyl-1,2,4-thiadiazol-3-yl)biphenyl-3-carboxylic Acid]	–	–
95%	66%	O=C(O)c1cc(F)cc(-c2cccc(-c3nsc(-c4ccoc4)n3)c2)c1 [Example 43, 5-Fluoro-3′-(5-(furan-3-yl)-1,2,4-thiadiazol-3-yl)biphenyl-3-carboxylic Acid]	–	–
100%	95%	O=C(O)c1cc(F)cc(-c2cccc(-c3nc(-c4ccc(C(F)(F)F)nc4)cc(C(F)(F)F)n3)c2)c1 [Example 76, 5-Fluoro-3′-(4-(trifluoromethyl)-6-(6-(trifluoromethyl)pyridin-3-yl)pyrimidin-2-yl)biphenyl-3-carboxylic Acid]	–	–
86%	82%	O=C(O)c1ccc(F)c(-c2cccc(-c3nc(-c4ccc(C(F)(F)F)nc4)cc(C(F)(F)F)n3)c2)c1 [Example 79, 6-Fluoro-3′-(4-(trifluoromethyl)-6-(6-(trifluoromethyl)pyridin-3-yl)pyrimidin-2-yl)biphenyl-3-carboxylic Acid]	–	–
100%	100%	O=C(O)c1cc(-c2cccc(-c3nc(-c4ccccc4)cc(C(F)(F)F)n3)c2)ccc1F [Example 86, 4-Fluoro-3′-(4-phenyl-6-(trifluoromethyl)pyrimidin-2-yl)biphenyl-3-carboxylic Acid]	–	–
97%	92%	COc1ccc(-c2cc(C(F)(F)F)nc(-c3cccc(-c4ccc(F)c(C(=O)O)c4)c3)n2)cc1 [Example 87, 4-Fluoro-3′-(4-(4-methoxyphenyl)-6-(trifluoromethyl)pyrimidin-2-yl)biphenyl-3-carboxylic Acid]	–	–
100%	82%	O=C(O)c1cc(F)cc(-c2cccc(-c3nc(-c4ccco4)cc(C(F)(F)F)n3)c2)c1 [Example 89, 5-Fluoro-3′-(4-(furan-2-yl)-6-(trifluoromethyl)pyrimidin-2-yl)biphenyl-3-carboxylic Acid]	–	–
93%	66%	O=C(O)c1ccc(F)c(-c2cccc(-c3nc(-c4ccoc4)cc(C(F)(F)F)n3)c2)c1 [Example 114, 6-Fluoro-3′-(4-(furan-3-yl)-6-(trifluoromethyl)pyrimidin-2-yl)biphenyl-3-carboxylic Acid]	–	–
83%	83%	O=C(O)c1cc(-c2cccc(-c3nc(-c4ccsc4)cc(C(F)(F)F)n3)c2)ccc1F [Example 122, 4-Fluoro-3′-(4-(thiophen-3-yl)-6-(trifluoromethyl)pyrimidin-2-yl)-[1,1′-biphenyl]-3-carboxylic Acid]	–	–
99%	90%	Cc1cc2c(cc1C(F)(F)F)NC(=O)CC(c1cccc(Sc3ncccn3)c1)=N2 [Example 136, 7-Methyl-4-(3-(pyrimidin-2-ylthio)phenyl)-8-(trifluoromethyl)-1H-benzo[b][1,4]diazepin-2(3H)-one]	–	–
66%	68%	Cc1cc2c(cc1C(F)(F)F)NC(=O)CC(c1cccc(S(=O)(=O)c3ncccn3)c1)=N2 [Example 137, 7-Methyl-4-(3-(pyrimidin-2-ylsulfonyl)phenyl)-8-(trifluoromethyl)-1H-benzo[b][1,4]diazepin-2(3H)-one]	–	–
100%	30%	O=C1CC(c2cccc(-c3cccnc3)c2)=Nc2ccc(Br)cc2N1 [Example 179, 8-Bromo-4-(3-(pyridin-3-yl)phenyl)-1,3-dihydro-2H-benzo[b][1,4]diazepin-2-one]	–	–
–	–	N#Cc1cc(C2=Nc3ccc(Br)cc3NC(=O)C2)ccn1 [Example 182, 4-(8-Bromo-2-oxo-2,3-dihydro-1H-benzo[b][1,4]diazepin-4-yl)picolinonitrile]	–	antidepressant activity by decreasing immobility and increasing swimming
100%	97%	N#Cc1cc(C2=Nc3ccc(C(F)(F)F)cc3NC(=O)C2)ccn1 [Example 184, 4-(2-Oxo-8-(trifluoromethyl)-2,3-dihydro-1H-benzo[b][1,4]diazepin-4-yl)picolinonitrile]	–	–
